Results as given in the NIST ThermoML archive (doi:10.1021/je1001413).

Details: Liquid, Vibrating tube method

CC(C)CCCCCCCOC(=O)c1ccccc1C(=O)OCCCCCCCC(C)C
Details | mass density [kg/m3]
283.15 K, 100 kPa | 974.5
283.15 K, 200 kPa | 974.5
283.15 K, 400 kPa | 974.6
283.15 K, 600 kPa | 974.7
283.15 K, 800 kPa | 974.9
283.15 K, 1010 kPa | 975
283.15 K, 2000 kPa | 975.5
283.15 K, 3020 kPa | 976
283.15 K, 4000 kPa | 976.6
283.15 K, 5000 kPa | 977.1
283.15 K, 6000 kPa | 977.7
283.15 K, 6980 kPa | 978.2
283.15 K, 8010 kPa | 978.7
283.15 K, 9020 kPa | 979.3
283.15 K, 10030 kPa | 979.8
283.15 K, 15000 kPa | 982.4
283.15 K, 19970 kPa | 985
283.15 K, 25030 kPa | 987.3
283.15 K, 29980 kPa | 989.8
283.15 K, 35030 kPa | 992.1
283.15 K, 40000 kPa | 994.5
283.15 K, 45030 kPa | 996.6
283.15 K, 49980 kPa | 998.8
283.15 K, 55030 kPa | 1000.9
283.15 K, 59990 kPa | 1002.6
283.15 K, 64990 kPa | 1005.1
288.15 K, 100 kPa | 970.7
288.15 K, 200 kPa | 970.8
288.15 K, 420 kPa | 970.9
288.15 K, 600 kPa | 971
288.15 K, 790 kPa | 971.1
288.15 K, 1000 kPa | 971.2
288.15 K, 1990 kPa | 971.7
288.15 K, 3020 kPa | 972.3
288.15 K, 4010 kPa | 972.9
288.15 K, 5000 kPa | 973.4
288.15 K, 6010 kPa | 974
288.15 K, 7020 kPa | 974.5
288.15 K, 7980 kPa | 975
288.15 K, 9000 kPa | 975.5
288.15 K, 10000 kPa | 976.1
288.15 K, 14990 kPa | 978.7
288.15 K, 19970 kPa | 981.4
288.15 K, 25000 kPa | 983.8
288.15 K, 30000 kPa | 986.4
288.15 K, 34990 kPa | 988.8
288.15 K, 40020 kPa | 991.1
288.15 K, 45000 kPa | 993.3
288.15 K, 49980 kPa | 995.7
288.15 K, 54980 kPa | 997.7
288.15 K, 60000 kPa | 999.9
288.15 K, 65000 kPa | 1002
293.15 K, 100 kPa | 967
293.15 K, 200 kPa | 967.1
293.15 K, 400 kPa | 967.2
293.15 K, 630 kPa | 967.3
293.15 K, 790 kPa | 967.4
293.15 K, 1000 kPa | 967.5
293.15 K, 2010 kPa | 968.1
293.15 K, 3020 kPa | 968.7
293.15 K, 4020 kPa | 969.2
293.15 K, 4970 kPa | 969.8
293.15 K, 5980 kPa | 970.3
293.15 K, 7020 kPa | 970.9
293.15 K, 8000 kPa | 971.5
293.15 K, 9020 kPa | 972
293.15 K, 10010 kPa | 972.6
293.15 K, 15010 kPa | 975.2
293.15 K, 20000 kPa | 977.9
293.15 K, 25030 kPa | 980.5
293.15 K, 30020 kPa | 983
293.15 K, 35030 kPa | 985.4
293.15 K, 40010 kPa | 987.8
293.15 K, 44980 kPa | 990.1
293.15 K, 50020 kPa | 992.4
293.15 K, 55020 kPa | 994.6
293.15 K, 60020 kPa | 996.8
293.15 K, 65000 kPa | 998.9
298.15 K, 100 kPa | 963.4
298.15 K, 200 kPa | 963.4
298.15 K, 410 kPa | 963.6
298.15 K, 620 kPa | 963.7
298.15 K, 820 kPa | 963.8
298.15 K, 1000 kPa | 963.9
298.15 K, 2020 kPa | 964.5
298.15 K, 3040 kPa | 965
298.15 K, 4030 kPa | 965.7
298.15 K, 4980 kPa | 966.2
298.15 K, 6070 kPa | 966.8
298.15 K, 7020 kPa | 967.3
298.15 K, 8040 kPa | 967.9
298.15 K, 9040 kPa | 968.5
298.15 K, 10030 kPa | 969
298.15 K, 15010 kPa | 971.7
298.15 K, 19990 kPa | 974.4
298.15 K, 25000 kPa | 977
298.15 K, 30020 kPa | 979.6
298.15 K, 35000 kPa | 982.1
298.15 K, 40020 kPa | 984.5
298.15 K, 44970 kPa | 986.9
298.15 K, 49990 kPa | 989.2
298.15 K, 54970 kPa | 991.4
298.15 K, 60000 kPa | 993.7
298.15 K, 65020 kPa | 995.8
303.15 K, 100 kPa | 959.7
303.15 K, 200 kPa | 959.8
303.15 K, 400 kPa | 959.9
303.15 K, 580 kPa | 960
303.15 K, 800 kPa | 960.2
303.15 K, 1000 kPa | 960.3
303.15 K, 2000 kPa | 960.9
303.15 K, 2990 kPa | 961.4
303.15 K, 4000 kPa | 962
303.15 K, 5000 kPa | 962.6
303.15 K, 6000 kPa | 963.2
303.15 K, 7000 kPa | 963.8
303.15 K, 7980 kPa | 964.3
303.15 K, 9000 kPa | 964.9
303.15 K, 10020 kPa | 965.5
303.15 K, 14970 kPa | 968.2
303.15 K, 20010 kPa | 971
303.15 K, 25030 kPa | 973.6
303.15 K, 30020 kPa | 976.3
303.15 K, 35000 kPa | 978.8
303.15 K, 40000 kPa | 981.2
303.15 K, 45000 kPa | 983.6
303.15 K, 50010 kPa | 986
303.15 K, 54980 kPa | 988.3
303.15 K, 60000 kPa | 990.5
303.15 K, 64990 kPa | 992.7
308.15 K, 100 kPa | 956.2
308.15 K, 200 kPa | 956.2
308.15 K, 410 kPa | 956.4
308.15 K, 610 kPa | 956.5
308.15 K, 800 kPa | 956.6
308.15 K, 1000 kPa | 956.7
308.15 K, 2010 kPa | 957.3
308.15 K, 3020 kPa | 957.9
308.15 K, 4000 kPa | 958.5
308.15 K, 5000 kPa | 959.1
308.15 K, 6000 kPa | 959.7
308.15 K, 7020 kPa | 960.3
308.15 K, 8000 kPa | 960.8
308.15 K, 9020 kPa | 961.4
308.15 K, 10000 kPa | 962
308.15 K, 15010 kPa | 964.8
308.15 K, 19990 kPa | 967.6
308.15 K, 25000 kPa | 970.3
308.15 K, 30010 kPa | 973
308.15 K, 35000 kPa | 975.5
308.15 K, 39990 kPa | 978
308.15 K, 44990 kPa | 980.4
308.15 K, 50010 kPa | 982.9
308.15 K, 55000 kPa | 985.2
308.15 K, 60000 kPa | 987.4
308.15 K, 65000 kPa | 989.7
